Target: Multidrug resistance-associated protein 1 (Homo sapiens, UniProt P33527)
Assay: TP_TRANSPORTER: intracellular accumulation in KB-3-1 and MRP1-expressing KB-3-1 cells
Format: functional, cell-based, KB-3-1; KB/MRP
Settings: kb/mrp

Multidrug resistance-associated protein 1, sequence (P33527 whole entry): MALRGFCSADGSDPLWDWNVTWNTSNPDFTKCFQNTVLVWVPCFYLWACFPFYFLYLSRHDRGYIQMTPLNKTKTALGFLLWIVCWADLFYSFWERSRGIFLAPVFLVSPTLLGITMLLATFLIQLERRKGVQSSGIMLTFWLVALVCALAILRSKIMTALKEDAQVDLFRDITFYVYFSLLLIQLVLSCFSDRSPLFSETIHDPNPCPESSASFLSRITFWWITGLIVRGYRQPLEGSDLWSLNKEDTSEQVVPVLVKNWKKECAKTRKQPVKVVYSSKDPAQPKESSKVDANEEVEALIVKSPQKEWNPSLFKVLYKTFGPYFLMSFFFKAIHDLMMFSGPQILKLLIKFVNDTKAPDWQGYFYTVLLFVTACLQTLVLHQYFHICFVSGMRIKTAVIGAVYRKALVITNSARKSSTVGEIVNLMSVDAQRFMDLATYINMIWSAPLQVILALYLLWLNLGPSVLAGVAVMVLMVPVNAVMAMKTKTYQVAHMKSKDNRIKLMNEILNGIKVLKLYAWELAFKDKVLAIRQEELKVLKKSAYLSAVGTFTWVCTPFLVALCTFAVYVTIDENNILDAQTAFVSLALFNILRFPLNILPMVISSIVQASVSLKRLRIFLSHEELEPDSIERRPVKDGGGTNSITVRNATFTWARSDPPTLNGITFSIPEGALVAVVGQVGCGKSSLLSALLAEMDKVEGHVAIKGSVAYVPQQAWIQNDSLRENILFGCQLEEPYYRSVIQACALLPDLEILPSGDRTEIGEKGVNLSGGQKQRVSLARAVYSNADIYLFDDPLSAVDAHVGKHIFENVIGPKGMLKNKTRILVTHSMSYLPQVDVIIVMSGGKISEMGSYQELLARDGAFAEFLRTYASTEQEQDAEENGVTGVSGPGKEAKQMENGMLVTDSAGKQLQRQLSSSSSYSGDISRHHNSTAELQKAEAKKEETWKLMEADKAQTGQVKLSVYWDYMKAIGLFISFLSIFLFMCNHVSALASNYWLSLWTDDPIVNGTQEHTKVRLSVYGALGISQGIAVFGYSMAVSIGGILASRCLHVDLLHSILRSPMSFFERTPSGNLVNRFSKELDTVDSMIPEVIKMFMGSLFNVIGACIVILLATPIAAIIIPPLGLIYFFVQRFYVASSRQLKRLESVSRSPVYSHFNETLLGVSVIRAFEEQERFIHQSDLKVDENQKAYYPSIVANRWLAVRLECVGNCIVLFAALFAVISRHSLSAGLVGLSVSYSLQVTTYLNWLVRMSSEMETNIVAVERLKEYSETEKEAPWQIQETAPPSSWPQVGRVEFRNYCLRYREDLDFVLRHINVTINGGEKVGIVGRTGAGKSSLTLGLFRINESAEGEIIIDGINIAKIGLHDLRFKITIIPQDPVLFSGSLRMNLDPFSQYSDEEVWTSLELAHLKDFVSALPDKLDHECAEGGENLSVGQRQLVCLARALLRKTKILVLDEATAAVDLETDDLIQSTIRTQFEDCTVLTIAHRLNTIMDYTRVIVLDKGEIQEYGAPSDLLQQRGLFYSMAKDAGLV

SMILES | Activity
CCc1c2c(nc3ccc(OC(=O)N4CCC(N5CCCCC5)CC4)cc13)-c1cc3c(c(=O)n1C2)COC(=O)[C@]3(O)CC [IRINOTECAN] | substrate [+]
CCc1c2c(nc3ccc(O)cc13)-c1cc3c(c(=O)n1C2)COC(=O)[C@]3(O)CC [7-ETHYL-10-HYDROXYCAMPTOTHECIN] | substrate [+]

— ChEMBL document CHEMBL2074109, “ATP-Dependent efflux of CPT-11 and SN-38 by the multidrug resistance protein (MRP) and its inhibition by PAK-104P” (Mol Pharmacol, 1999)
